Source: patent publication US4320052A, “Derivatives of A-30912A nucleus” (Eli Lilly and Company, priority 1980, dated 1982)
≈ marks a conversion by molar mass, not a printed value. Like-named read-outs stand apart in the source and are kept apart here. Numbered stars: 1 amine (or outer) side, 2 acyl side, 3 side chain; on linkers, the order of the positions; unused ones are H or OH. Bridge positions count the residues as written; N and C are the ends. Square brackets hold non-standard residues; d marks the D form. Peptide text beside a SMILES is read from it. * marks the point of attachment. Orn(4R-OH,5R-OH) = O=C([C@H](C[C@@H](O)[C@@H](O)N[*:3])N[*:1])[*:2]; hTyr(3S-OH,4S-OH) = N[C@H](C(=O)O)[C@H](O)[C@@H](O)c1ccc(O)cc1; Pro(3S-OH,4S-Me) = C[C@H]1CN[C@H](C(=O)O)[C@H]1O; Docosanoyl = CCCCCCCCCCCCCCCCCCCCCC(=O)*; Arachidoyl = CCCCCCCCCCCCCCCCCCCC(=O)*; Heptadecanoyl = CCCCCCCCCCCCCCCCC(=O)*; X1 = CC/C=C\C/C=C\C/C=C\CCCCCCCC(=O)*; Hyp = O=C(O)[C@@H]1C[C@@H](O)CN1; Tridecanoyl = CCCCCCCCCCCCC(=O)*; X3 = CCCCCCCC/C=C/CCCCCCCC(=O)*

Key:
Candida albicans A-26 [1] = assay: Agar plate disc diffusion test (MIC); assay type: cell-based; details: 0.01M sodium borate pH 7.5; 20 μg/disc top, twofold dilutions; 24 hours, 30° C.
Experimental: (§1) Tables II and III give the results of the testing in vitro of the compounds of Examples 1-16 by agar-plate disc-diffusion methods. In Table II activity is measured by the size (diameter in mm.) of the observed zone of inhibition of the microorganism produced by the test compound. In Table III, activity is measured by the minimal inhibitory concentration (MIC) of the substance (μg/dic) required to inhibit growth of the test organism. Table IV gives the results of the testing in vitro of the n-tridecanoyl derivative of A30912A nucleus (Formula III, R is n-C12 H25) against five strains of Candida albicans by the agar dilution method. In […] activity is measured by the minimal inhibitory concentration (MIC) of the substance (μg/ml) required to inhibit the test organism.
(§2) *Compounds were suspended in 0.01M sodium borate solution, pH 7.5. The
(§3) compounds were tested at 20 μg/disc at top level and at twofold
(§4) dilutions until end points were reached. Incubation: 24 hours; 30°

[2] = tested on: Trichophyton mentagrophytes #6; assay: Agar plate disc diffusion test (MIC); assay type: cell-based; details: 0.01M sodium borate pH 7.5; 20 μg/disc top, twofold dilutions; 24 hours, 30° C.
Experimental: as §1, §2, §3, §4

Candida albicans A-26 [3] = assay: In vivo activity against Candida albicans A-26 infection in mice; set-up: species or system mice infected with Candida albicans A-26; details: Candida albicans, A26, sc, 24 h; for minimal effective dose: read-out: Lowest Active Dose
Experimental: The results of in vivo tests to evaluate the effectiveness of the compound of Examples 1-16 against an infection caused by Candida albicans A-26 in mice are given in Table V, where activity is measured by the ED50 value (the dose in mg/kg. required to cure 50% of the test animals). Where an ED50 value was not obtained, activity is indicated by the lowest dose at which a significant anti-fungal effect is observed. In this test, groups of male albino mice (specific pathogen free), weighing 18 to 20 grams, are infected intravenously with Candida albicans A-26. The animals are X-irradiated 24 hours prior to infection at about 50 roentgens per minute for 8 minutes (400 total dose) to reduce immune responses to the infecting organism. At 0, 4, and 24 hours post infection each group of mice is given graded doses subcutaneously of the test compound as a suspension in 33% polyethylene glycol-water. The day of death for each animal is recorded.
mg/kg. Dosages given 0, 4, and 24 hours post injection as suspension of
test compound in 30% PEG--H2 O. Number of mice receiving test
compounds at each dosage level; 6 mice per group. Number of mice in
control (untreated) group: 10 mice per group.
**As measured by increase in survival time of treated animals versus
control, calculated by method of Reed v Mueuch, American J. Hygiene, 27,

Neurospora crassa 846 = assay: Agar plate disc diffusion test (zone of inhibition); assay type: cell-based
Experimental: as §1
(§5) ^(a) Compounds were tested as suspension in methanol at a
(§6) concentration of 1 mg/ml. by dipping a 7mm disc into the suspension and
(§7) placing it on the agar surface. Incubation: 24-48 hours at 25-37°

Candida albicans A-26 [4] = assay: as above; assay type: cell-based; details: suspension in methanol 1 mg/ml, 7mm disc; 24-48 hours at 25-37° C.
Experimental: as §1, §5, §6, §7

[5] = tested on: Trichophyton mentagraphytes A-23; assay: as above; assay type: cell-based, Trichophyton mentagrophytes
Experimental: as §1, §5, §6, §7

[6] = Blood levels after oral administration in mice (bioassay vs. Aspergillus montevidensis A35137); details: mouse, in vivo; for concentration at 4 h: po; for Blood Levels After Oral Administration In Mice: 240 min
Text: determined by bioassay vs. Aspergillus montevidensis A35137.

[7] = tested on: Saccharomyces pastoranius X-52; assay: Agar plate disc diffusion test (zone of inhibition); assay type: cell-based, Saccharomyces pastorianus
Experimental: as §1, §5, §6, §7

[8] = Toxicity in dog, intravenous administration; assay type: in vivo; details: 100 mg/kg per day for five days
Candida albicans = assay: Agar dilution test against strains of Candida albicans (MIC); assay type: cell-based
Experimental: as §1

[9] = mice, subcutaneous, schedule A (40, 20, 15, and 10 mg/kg), 0, 4, 24 hours, increase in survival time, read-out: ED50
[10] = mice, subcutaneous, schedule A (40, 20, 15, and 10 mg/kg), 0, 4, 24 hours
[11] = Neurospora crassa, 846, suspension in methanol 1 mg/ml, 7mm disc, 24-48 hours at 25-37° C., read-out: Size of zone of inhibition, Neurospora crassa 846
[12] = A23, suspension in methanol 1 mg/ml, 7mm disc, *distinct measurable zone of inhibition with regrowth of organism around disc, read-out: Size of zone of inhibition, Trichophyton mentagraphytes A-23 (*)
[13] = X52, suspension in methanol 1 mg/ml, 7mm disc, 24-48 hours at 25-37° C., read-out: Size of zone of inhibition, Saccharomyces pastoranius X-52
[14] = A23, suspension in methanol 1 mg/ml, 7mm disc, 24-48 hours at 25-37° C., read-out: Size of zone of inhibition, Trichophyton mentagraphytes A-23

| Structure (SMILES) | MIC, Candida albicans A-26 (Candida albicans A-26 [1]) | MIC, Trichophyton mentagrophytes #6 [2] | ED50 (Candida albicans A-26 [3]; [9]) | minimal effective dose (Candida albicans A-26 [3]; [10]) | zone of inhibition at 1000 µg/mL (Neurospora crassa 846; [11]) | Size of zone of inhibition, Candida albicans A-26 (Candida albicans A-26 [4]) | zone of inhibition at 1000 µg/mL [5, 12] | concentration at 4 h ([6]; 416 mg/kg) | zone of inhibition at 1000 µg/mL [7, 13] | zone of inhibition at 1000 µg/mL [5, 14] | Blood Levels After Oral Administration In Mice [6] | further results |
| --- | --- | --- | --- | --- | --- | --- | --- | --- | --- | --- | --- | --- |
| CCCCCCCCCCCCCCCCC(=O)N[C@H]1C[C@@H](O)[C@@H](O)NC(=O)[C@@H]2[C@@H](O)[C@@H](C)CN2C(=O)[C@H]([C@@H](C)O)NC(=O)[C@H]([C@H](O)[C@@H](O)c2ccc(O)cc2)NC(=O)[C@@H]2C[C@@H](O)CN2C(=O)[C@H]([C@@H](C)O)NC1=O [Example 5] (Heptadecanoyl-[Orn(4R-OH,5R-OH)]T[Hyp][hTyr(3S-OH,4S-OH)]T[Pro(3S-OH,4S-Me)]; lactam 1-C) | 0.625 μg/disc | 0.039 μg/disc | 9 mg/kg | ≥ 5 mg/kg | 21 mm | 18 mm | 40 mm | 97 µg/mL | 30 mm | – | – | – |
| CCCCCCCCCCCCC(=O)N[C@H]1C[C@@H](O)[C@@H](O)NC(=O)[C@@H]2[C@@H](O)[C@@H](C)CN2C(=O)[C@H]([C@@H](C)O)NC(=O)[C@H]([C@H](O)[C@@H](O)c2ccc(O)cc2)NC(=O)[C@@H]2C[C@@H](O)CN2C(=O)[C@H]([C@@H](C)O)NC1=O [Example 2, n-Tridecanoyl Derivative of A-30912A Nucleus] (Tridecanoyl-[Orn(4R-OH,5R-OH)]T[Hyp][hTyr(3S-OH,4S-OH)]T[Pro(3S-OH,4S-Me)]; lactam 1-C) | 0.625 μg/disc | 0.039 μg/disc | – | – | – | 30 mm | – | – | – | – | – | ED50 (Candida albicans A-26 [3]): 34 mg/kg; minimal effective dose (Candida albicans A-26 [3]): 20 mg/kg; SGPT levels [8]: increased SGPT levels; hemolysis [8]: evidence of hemolysis; outward signs of toxicity [8]: no outward signs of toxicity; zone of inhibition at 1000 µg/mL (Neurospora crassa 846; Neurospora crassa, 846, read-out: Size of zone of inhibition, Neurospora crassa 846 (*)): 32 mm; zone of inhibition at 1000 µg/mL ([5]; A23, read-out: Size of zone of inhibition, Trichophyton mentagraphytes A-23 (*)): 60 mm; concentration at 4 h ([6]; four hours after 416 mg/kg by gavage, suspension in 33% PEG 400-H2O, read-out: Blood Levels After Oral Administration In Mice): 0.1 µg/mL; MIC (Candida albicans; read-out: MIC, Candida albicans A26): 0.312 µg/mL (≈ 0.314 µM); MIC (Candida albicans; strain SBH 16, agar dilution, read-out: MIC, Candida albicans SBH 16): 0.625 µg/mL (≈ 0.629 µM); MIC (Candida albicans; strain SBH 28, agar dilution, read-out: MIC, Candida albicans SBH 28): 0.625 µg/mL (≈ 0.629 µM); MIC (Candida albicans; strain SBH 29, agar dilution, read-out: MIC, Candida albicans SBH 29): 0.625 µg/mL (≈ 0.629 µM); MIC (Candida albicans; strain SBH 31, agar dilution, read-out: MIC, Candida albicans SBH 31): 0.625 µg/mL (≈ 0.629 µM); zone of inhibition at 1000 µg/mL ([7]; X52, read-out: Size of zone of inhibition, Saccharomyces pastoranius X-52): 21 mm |
| CCCCCCCC/C=C/CCCCCCCC(=O)N[C@H]1C[C@@H](O)[C@@H](O)NC(=O)[C@@H]2[C@@H](O)[C@@H](C)CN2C(=O)[C@H]([C@@H](C)O)NC(=O)[C@H]([C@H](O)[C@@H](O)c2ccc(O)cc2)NC(=O)[C@@H]2C[C@@H](O)CN2C(=O)[C@H]([C@@H](C)O)NC1=O [Example 8] (X3-[Orn(4R-OH,5R-OH)]T[Hyp][hTyr(3S-OH,4S-OH)]T[Pro(3S-OH,4S-Me)]; lactam 1-C) | 0.156 μg/disc | < 0.039 μg/disc | 11 mg/kg | 10 mg/kg | 32 mm | 21 mm | 31 mm | 65 µg/mL | 18 mm | – | – | – |
| CC/C=C\C/C=C\C/C=C\CCCCCCCC(=O)N[C@H]1C[C@@H](O)[C@@H](O)NC(=O)[C@@H]2[C@@H](O)[C@@H](C)CN2C(=O)[C@H]([C@@H](C)O)NC(=O)[C@H]([C@H](O)[C@@H](O)c2ccc(O)cc2)NC(=O)[C@@H]2C[C@@H](O)CN2C(=O)[C@H]([C@@H](C)O)NC1=O [Example 11] (X1-[Orn(4R-OH,5R-OH)]T[Hyp][hTyr(3S-OH,4S-OH)]T[Pro(3S-OH,4S-Me)]; lactam 1-C) | 1.25 μg/disc | 0.039 μg/disc | > 40 mg/kg | > 40 mg/kg | – | 30 mm | – | – | 16 mm | 36 mm | 0 µg/mL | zone of inhibition at 1000 µg/mL (Neurospora crassa 846; Neurospora crassa, 846, suspension in methanol 1 mg/ml, 7mm disc, *distinct measurable zone of inhibition with regrowth of organism around disc, read-out: Size of zone of inhibition, Neurospora crassa 846 (*)): 33 mm |
| CCCCCCCCCCCCCCCCCCCC(=O)N[C@H]1C[C@@H](O)[C@@H](O)NC(=O)[C@@H]2[C@@H](O)[C@@H](C)CN2C(=O)[C@H]([C@@H](C)O)NC(=O)[C@H]([C@H](O)[C@@H](O)c2ccc(O)cc2)NC(=O)[C@@H]2C[C@@H](O)CN2C(=O)[C@H]([C@@H](C)O)NC1=O [Example 13] (Arachidoyl-[Orn(4R-OH,5R-OH)]T[Hyp][hTyr(3S-OH,4S-OH)]T[Pro(3S-OH,4S-Me)]; lactam 1-C) | 5.0 μg/disc | 5 μg/disc | 40 mg/kg | 10 mg/kg | 13 mm | 16 mm | – | – | 18 mm | 16 mm | 0 µg/mL | – |
| CCCCCCCCCCCCCCCCCCCCCC(=O)N[C@H]1C[C@@H](O)[C@@H](O)NC(=O)[C@@H]2[C@@H](O)[C@@H](C)CN2C(=O)[C@H]([C@@H](C)O)NC(=O)[C@H]([C@H](O)[C@@H](O)c2ccc(O)cc2)NC(=O)[C@@H]2C[C@@H](O)CN2C(=O)[C@H]([C@@H](C)O)NC1=O [Example 15] (Docosanoyl-[Orn(4R-OH,5R-OH)]T[Hyp][hTyr(3S-OH,4S-OH)]T[Pro(3S-OH,4S-Me)]; lactam 1-C) | 5.0 μg/disc | 5 μg/disc | > 40 mg/kg | > 40 mg/kg | 15 mm | 12 mm | – | – | 19 mm | 20 mm | 0 µg/mL | – |
